Like-named read-outs stand apart in the source and are kept apart here. Bridge positions count the residues as written; N and C are the ends. Peptide text beside a SMILES is read from it.
Key:
ErbB1 = target: T1, ErbB1 (Homo sapiens, UniProt P00533); experiment: Surface plasmon resonance (Biacore) binding to immobilized ErbB1 extracellular domain
T1 construct: gift of Dr. Mark A. Lemmon, University of Pennsylvania School of Medicine
Protocol: (§1) The designed erbB peptides were tested for binding to erbB receptors using surface plasmon resonance (Biacore) technology (described supra) using soluble erbB-1 and erbB-3. The response was plotted in real time in the form of sensorgram curves.
(§2) Binding experiments were performed with the surface plasmon resonance based biosensor instrument Biacore 3000 (Biacore AB, Uppsala, Sweden), at 25° C. […] (erbB2) and Dr. Mark A. Lemmon, Department of Biochemistry and Biophysics, University of Pennsylvania School of Medicine (erbB1 and erbB3). Immobilization of the erbB receptors in the sensor surface was performed following the standard amine coupling procedure according to manufacturer's instructions. Briefly, 35 μl of a solution containing 0.2 M N-ethyl-N′-(dimethylaminopropyl) carbodiimide (EDC) and 0.05 M N-hydroxysuccinimide (NHS), were injected at a flow rate of 5 μl/min to activate carboxyl groups on the sensor chip surface. Receptors (40 ng/ml in 10 mM NaOAc buffer, pH 5.0) were flowed over the chip surface at a flow rate of 20 μl/min until the desired level bound protein was reached. Unreacted protein was washed out and unreacted activated groups were blocked by the injection of 35 μl of 1 M ethanolamine at 5 μl/min. […] A reference surface was generated simultaneously under the same conditions but without receptor injection and used as a blank to correct for instrument and buffer artifacts. Peptides were injected at variable concentrations at 20 μl/min flow rate and binding to the receptors immobilized on the chip was monitored in real time. Each sensorgram consists of an association phase (first 240 s), reflecting binding of the injected peptide to the receptor, followed by a dissociation phase (300 s), during which the running buffer is passed over the chip and the bound peptide is being washed off the receptor surface.

ErbB2 = target: T2, ErbB2 (Homo sapiens, UniProt P04626); experiment: Surface plasmon resonance (Biacore) binding to immobilized ErbB2 extracellular domain
T2 construct: provided by Dr. Che Law, Xcyte Therapeutics, Seattle
Protocol: as §1, with “curves. Dissociation constants (Kd) were determined as described (Park, et al. 2000, Nat. Biotechnol. 18:194-198).” for “curves.”
A sensorgram for binding of B2-S22-APE peptide to erbB receptors immobilized on the sensor chip was performed.
as §2

ErbB3 = target: T3, ErbB3 (Homo sapiens, UniProt P21860); experiment: Surface plasmon resonance (Biacore) binding to immobilized ErbB3 extracellular domain
T3 construct: gift of Dr. Mark A. Lemmon, University of Pennsylvania School of Medicine
Protocol: as §1, §2

erbB2-SbdIV = target: T4, erbB2-SbdIV (Homo sapiens, UniProt P04626); experiment: Surface plasmon resonance binding to immobilized recombinant erbB2-SbdIV
T4 construct: The DNA fragment encoding the subdomain IV of erbB2 (erbB2-SbdIV) was generated by polymerase chain reaction; GST (N); made in house; host or cells: Escherichia coli BL-21 (DE3), vector pGEX-5X-3
From the text: Since erbB peptides are derived from subdomain IV of different erbB receptors, this fact indicates direct involvement of subdomain IV in receptor-receptor interactions between the members of erbB receptor family.
The DNA fragment encoding the subdomain IV of erbB2 (erbB2-SbdIV) was generated by polymerase chain reaction. The upstream primer was 5′-[…]-3′ [SEQ ID NO: 44] and the downstream primer was 5′-[…]-3′. [SEQ ID NO: 45] These two primers were designed to include BamHI and Not I restriction sites, respectively, for inframe insertion into the BamHI/Not I linearized pGEX-5X-3 vector. Recombinant vector was used to infect Escherichia coli BL-21 (DE3). 100 ml of the 2XYT medium were inoculated with 10 ml of the overnight culture and grown at 37° C. until the OD600 of 0.4-0.5 was reached. IPTG was added to the medium at the final concentration of 0.1 mM and grown for 2 hrs. The cells were spun down by centrifugation at 4,000 g for 10 min and resuspended with 5 ml of cold PBS (with DTT, PMSF and aprotinin at the final concentration of 5 mM, 1 mM and 1 μg/ml respectively). After sonication on ice, Triton X-100 was added to the final concentration of 1% and the solution was rocked at 4° C. for 1 hr and centrifuged at 10,000 g for 10 min. 100 μl of glutathione sepharose bead was then added to the supernatant. It was rocked at 4° C. for 2-4 hrs, centrifuged and washed three times with PBS. 100 μl elution buffer was added followed by rotation for 10 min at room temperature, centrifugation at 300 g for 1 min and collection of the supernatant. Elutions were repeated three times and combined.
Binding experiments were performed with the surface plasmon resonance based biosensor instrument Biacore 3000 (Biacore AB, Uppsala, Sweden), at 25° C. Recombinant purified erbB receptors were provided by Dr. Che Law, Xcyte Therapeutics, Seattle, Wash. […] Peptides were injected at variable concentrations at 20 μl/min flow rate and binding to the receptors immobilized on the chip was monitored in real time. […]

[1] = target: T5, erbB3-erbB1 heteromerization (Homo sapiens, UniProt P00533); experiment: SPR inhibition of HRGβ1-induced binding of ErbB3 to immobilized ErbB1; details: peptide 10 μm, ErbB3 300 nm, HRGβ1 5 μM
T5 construct: the ectodomains of erbB receptors were immobilized on the surface chip; erbB1 and erbB3: gift of Dr. Mark A. Lemmon
Protocol: (§3) The effect of cysteine-knot mimetics on receptor self-associations, was examined using a Biacore assay in which the ectodomains of erbB receptors were immobilized on the surface chip and the ectodomain of erbB3 was injected at 300 nM concentrations either alone or in the presence of 5 μM hereglunin HRGβ1.
(§4) The effect of the erbB peptides on heregulin-induced receptor self-associations was studied by preinjecting them at 10 μM followed by injection of erbB3-HRGβ1 (FIG. 4; 1B, 2B, 3B).
as §2

[2] = target: T6, erbB3-erbB2 heteromerization (Homo sapiens, UniProt P04626); experiment: SPR inhibition of HRGβ1-induced binding of ErbB3 to immobilized ErbB2; details: peptide 10 μm, ErbB3 300 nm, HRGβ1 5 μM
T6 construct: the ectodomains of erbB receptors were immobilized on the surface chip; erbB2: Dr. Che Law, Xcyte Therapeutics; erbB3: Dr. Mark A. Lemmon
Protocol: as §3, §4, §2

[3] = target: T7, erbB3-erbB3 homomerization (Homo sapiens, UniProt P21860); experiment: SPR inhibition of HRGβ1-induced binding of ErbB3 to immobilized ErbB3; details: peptide 10 μm, ErbB3 300 nm, HRGβ1 5 μM
T7 construct: the ectodomains of erbB receptors were immobilized on the surface chip; erbB3: gift of Dr. Mark A. Lemmon
Protocol: as §3, §4, §2

[4] = FIG. 3A, erbB receptors immobilized on the sensor chip, global fitting to 1:1 Langmurian interaction model
[5] = erbB2-SbdIV immobilized on the surface chip, FIG. 3B
[6] = immobilized extracellular domain, surface plasmon resonance, read-out: KD (μM) ErbB1
[7] = immobilized extracellular domain, surface plasmon resonance, read-out: KD (μM) ErbB2
[8] = immobilized extracellular domain, surface plasmon resonance, read-out: KD (μM) ErbB3

T4 sequence (P04626 509-657): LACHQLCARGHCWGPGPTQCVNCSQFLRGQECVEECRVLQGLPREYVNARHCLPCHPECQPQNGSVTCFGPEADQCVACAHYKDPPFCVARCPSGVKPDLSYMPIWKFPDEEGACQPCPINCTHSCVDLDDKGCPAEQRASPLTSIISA
T6 sequence (P04626 23-652 limits assumed, one chain of several): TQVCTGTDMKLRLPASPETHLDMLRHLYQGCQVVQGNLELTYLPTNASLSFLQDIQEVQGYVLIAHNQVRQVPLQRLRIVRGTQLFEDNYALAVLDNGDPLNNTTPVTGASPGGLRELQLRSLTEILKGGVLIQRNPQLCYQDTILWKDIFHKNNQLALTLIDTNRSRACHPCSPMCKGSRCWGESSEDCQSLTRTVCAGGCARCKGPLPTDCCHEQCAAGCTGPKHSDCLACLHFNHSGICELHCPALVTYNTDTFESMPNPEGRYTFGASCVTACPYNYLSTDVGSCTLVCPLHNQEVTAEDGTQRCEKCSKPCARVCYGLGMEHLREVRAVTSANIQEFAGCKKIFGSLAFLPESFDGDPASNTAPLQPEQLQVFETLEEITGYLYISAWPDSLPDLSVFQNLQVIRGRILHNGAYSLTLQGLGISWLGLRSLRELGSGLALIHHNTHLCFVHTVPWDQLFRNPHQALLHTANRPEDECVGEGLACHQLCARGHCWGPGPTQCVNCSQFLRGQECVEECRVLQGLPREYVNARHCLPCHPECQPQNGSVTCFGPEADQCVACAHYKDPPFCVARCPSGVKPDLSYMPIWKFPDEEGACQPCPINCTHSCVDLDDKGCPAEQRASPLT
T2 sequence (P04626 23-652 limits assumed): as the sequence (P04626 23-652 limits assumed, one chain of several) above
T5 sequence (P00533 25-645 limits assumed, one chain of several): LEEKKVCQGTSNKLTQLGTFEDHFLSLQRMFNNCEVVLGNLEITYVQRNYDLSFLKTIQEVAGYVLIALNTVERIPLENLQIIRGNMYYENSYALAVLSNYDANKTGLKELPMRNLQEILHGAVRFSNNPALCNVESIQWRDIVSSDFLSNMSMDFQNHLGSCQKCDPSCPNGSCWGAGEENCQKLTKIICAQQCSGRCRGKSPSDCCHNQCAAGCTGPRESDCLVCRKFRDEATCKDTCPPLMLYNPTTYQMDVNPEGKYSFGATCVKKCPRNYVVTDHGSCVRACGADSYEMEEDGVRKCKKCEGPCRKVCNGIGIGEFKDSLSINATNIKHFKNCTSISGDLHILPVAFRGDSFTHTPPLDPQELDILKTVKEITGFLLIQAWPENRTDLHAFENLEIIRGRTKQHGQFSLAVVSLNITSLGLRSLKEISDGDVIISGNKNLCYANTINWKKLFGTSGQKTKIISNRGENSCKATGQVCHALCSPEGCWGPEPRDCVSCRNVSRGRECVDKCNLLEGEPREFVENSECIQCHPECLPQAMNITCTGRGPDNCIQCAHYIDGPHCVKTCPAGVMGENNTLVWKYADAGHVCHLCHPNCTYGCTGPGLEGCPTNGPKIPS
T1 sequence (P00533 25-645 limits assumed): as the sequence (P00533 25-645 limits assumed, one chain of several) above
T3 sequence (P21860 20-643 limits assumed): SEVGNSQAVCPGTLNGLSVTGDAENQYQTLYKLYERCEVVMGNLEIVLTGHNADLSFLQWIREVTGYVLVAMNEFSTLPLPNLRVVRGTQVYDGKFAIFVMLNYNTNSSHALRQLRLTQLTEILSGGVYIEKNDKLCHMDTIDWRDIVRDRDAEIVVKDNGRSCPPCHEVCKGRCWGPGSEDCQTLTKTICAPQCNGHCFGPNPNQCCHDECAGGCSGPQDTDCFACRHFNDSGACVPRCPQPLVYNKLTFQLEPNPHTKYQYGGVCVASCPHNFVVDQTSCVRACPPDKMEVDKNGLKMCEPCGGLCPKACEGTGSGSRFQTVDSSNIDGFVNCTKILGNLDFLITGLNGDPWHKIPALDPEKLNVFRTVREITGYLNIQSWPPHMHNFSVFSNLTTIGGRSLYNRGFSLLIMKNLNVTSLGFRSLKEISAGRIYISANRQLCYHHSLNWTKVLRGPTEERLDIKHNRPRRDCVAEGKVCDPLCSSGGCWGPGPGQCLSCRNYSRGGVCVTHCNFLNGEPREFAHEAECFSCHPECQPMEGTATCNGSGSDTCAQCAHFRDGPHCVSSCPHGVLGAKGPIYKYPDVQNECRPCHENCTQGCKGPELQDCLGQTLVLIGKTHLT
T7 sequence (P21860 20-643 limits assumed): as above

SMILES | Percent Inhibition ErbB1 [1] | Percent Inhibition ErbB2 [2] | Percent Inhibition ErbB3 [3] | Kd (ErbB1; [6]) | Kd (ErbB2; [7]) | Kd (ErbB3; [8]) | Kd (ErbB1) | koff (ErbB2; [4]) | kon (ErbB2; [4]) | Kd (ErbB2; KD (μM) ErbB2, immobilized extracellular domain, surface plasmon resonance) | Kd (ErbB2; dissociation constant (Kd), FIG. 3A, koff/kon ratio) | Kd (ErbB3) | Kd (erbB2-SbdIV) | koff (erbB2-SbdIV; [5]) | kon (erbB2-SbdIV; [5])
CC[C@H](C)[C@@H]1NC(=O)[C@@H]2CCCN2C(=O)[C@@H](NC(=O)[C@@H](N)Cc2ccc(O)cc2)CSSC[C@@H](C(=O)N[C@@H](Cc2ccc(O)cc2)C(N)=O)NC(=O)[C@H](CCC(=O)O)NC(=O)[C@H](CCC(=O)O)NC(=O)[C@H](CC(=O)O)NC(=O)[C@@H]2CCCN2C(=O)[C@H](Cc2ccccc2)NC(=O)[C@H](CCCCN)NC(=O)[C@H](Cc2c[nH]c3ccccc23)NC1=O [B2-S22-APE] (H-YCPIWKFPDEECY-NH2; disulfide 2-12) | 80.3% | 51.1% | 42.7% | – | – | – | 0.21 µM | 0.000685 s⁻¹ | 3240 M⁻¹ s⁻¹ | 1.53 µM | 0.21 µM | 1.4 µM | 1.89 µM | 0.00307 s⁻¹ | 1620 M⁻¹ s⁻¹
CC(C)C[C@@H]1NC(=O)[C@@H](NC(=O)[C@@H](N)Cc2ccc(O)cc2)CSSC[C@@H](C(=O)N[C@@H](Cc2ccc(O)cc2)C(N)=O)NC(=O)CNC(=O)[C@H](C)NC(=O)[C@H](CC(=O)O)NC(=O)[C@H](C)NC(=O)[C@H](Cc2ccc(O)cc2)NC(=O)[C@H](CCCCN)NC(=O)[C@H](Cc2c[nH]c3ccccc23)NC(=O)[C@H](C(C)C)NC1=O [B1-S22-ALG] (H-YCLVWKYADAGCY-NH2; disulfide 2-12) | 65.2% | 71.4% | 75.1% | 0.449 µM | 0.371 µM | 0.288 µM | – | – | – | – | – | – | – | – | –
CC[C@H](C)[C@@H]1NC(=O)[C@@H]2CCCN2C(=O)[C@@H](NC(=O)[C@@H](N)Cc2ccc(O)cc2)CSSC[C@@H](C(=O)N[C@@H](Cc2ccc(O)cc2)C(N)=O)NC(=O)[C@H](CCC(N)=O)NC(=O)[C@H](C(C)C)NC(=O)[C@H](CC(=O)O)NC(=O)[C@@H]2CCCN2C(=O)[C@H](Cc2ccc(O)cc2)NC(=O)[C@H](CCCCN)NC(=O)[C@H](Cc2ccc(O)cc2)NC1=O [B3-S22-APQ] (H-YCPIYKYPDVQCY-NH2; disulfide 2-12) | 69.0% | 58.1% | 32.4% | 0.472 µM | 0.549 µM | 1.07 µM | – | – | – | – | – | – | – | – | –

Now from value to compound, other results behind:

Percent Inhibition ErbB1 [1] | Percent Inhibition ErbB2 [2] | Percent Inhibition ErbB3 [3] | Kd (ErbB1; [6]) | Kd (ErbB2; [7]) | Kd (ErbB3; [8]) | SMILES | Kd (ErbB1) | koff (ErbB2; [4]) | kon (ErbB2; [4]) | Kd (ErbB2; KD (μM) ErbB2, immobilized extracellular domain, surface plasmon resonance) | Kd (ErbB2; dissociation constant (Kd), FIG. 3A, koff/kon ratio) | Kd (ErbB3) | Kd (erbB2-SbdIV) | koff (erbB2-SbdIV; [5]) | kon (erbB2-SbdIV; [5])
2.4% | −1.2% | 3.1% | > 1000 µM | > 1000 µM | > 1000 µM | CC[C@H](C)[C@@H]1NC(=O)[C@H](Cc2ccc(O)cc2)NC(=O)[C@@H](NC(=O)[C@@H](N)Cc2ccccc2)CSSC[C@@H](C(=O)N[C@@H](Cc2ccc(O)cc2)C(N)=O)NC(=O)[C@H](CCC(N)=O)NC(=O)[C@H](CC(=O)O)NC(=O)[C@H](CCC(=O)O)NC(=O)[C@H](C(C)C)NC(=O)[C@H](CCC(=O)O)NC(=O)CNC1=O [CD4-G, reference compound] (H-FCYIGEVEDQCY-NH2; disulfide 2-11) | – | – | – | – | – | – | – | – | –
60.3% | 54.2% | 72.8% | 0.583 µM | 0.639 µM | 0.394 µM | CC[C@H](C)[C@@H]1NC(=O)[C@H](Cc2ccccc2)NC(=O)[C@@H](NC(=O)[C@@H](N)Cc2ccc(O)cc2)CSSC[C@@H](C(=O)N[C@@H](Cc2ccc(O)cc2)C(N)=O)NC(=O)[C@H](CC(=O)O)NC(=O)[C@@H]2CCCN2C(=O)[C@H](CC(=O)O)NC(=O)[C@H](C)NC(=O)[C@H](Cc2ccc(O)cc2)NC(=O)[C@H](CCCCN)NC(=O)[C@H](Cc2ccccc2)NC1=O [B4-S22-AFD] (H-YCFIFKYADPDCY-NH2; disulfide 2-12) | – | – | – | – | – | – | – | – | –

From patent publication US8962793B2, “ErbB interface peptidomimetics and methods of use thereof” (The Trustees of the University of Pennsylvania, priority 2001, dated 2015)
